In ChEMBL document CHEMBL2440079, “Synthesis and in vitro evaluation of a novel radioligand for αvβ3 integrin receptor imaging: [18F]FPPA-c(RGDfK)” (Bioorg Med Chem Lett, 2013):
The source made the active and inactive calls. The calls are words filed in the database; no cut-off is given here.

What was measured:
Integrin alpha-5/beta-1 = Integrin alpha-5/beta-1 (Homo sapiens, UniProt P05556+P08648); assay: Binding affinity to soluble truncated human recombinant 6His-tagged alpha5beta1 and integrins were expressed in HEK293T cells after 2 hrs by competition ELISA-like assay; type: cell-based, HEK-293T
Integrin alpha-V/beta-3 [1] = target: T1, Integrin alpha-V/beta-3 (Homo sapiens, UniProt P05106+P06756); assay: Binding affinity to soluble truncated human recombinant Fc-tagged alphaVbeta3 and integrins were expressed in HEK293T cells after 2 hrs by competition ELISA-like assay; type: cell-based, HEK-293T
HEK-293T = assay: Selectivity ratio of IC50 for soluble truncated human recombinant 6His-tagged alpha5beta1 and integrins were expressed in HEK293T cells to IC50 for soluble truncated human recombinant Fc-tagged alphaVbeta3 and integrins; type: cell-based
Integrin alpha-V/beta-3 [2] = target: T1, Integrin alpha-V/beta-3; assay: Activation of alphaVbeta3 integrin in HUVEC at 10 uM by flow cytometry; type: protein-complex assay

SMILES | IC50 (Integrin alpha-5/beta-1) [µM] | IC50 (Integrin alpha-V/beta-3 [1]) [nM] | Ratio IC50 (HEK-293T) | Activity (Integrin alpha-V/beta-3 [2])
NC(N)=NCCC[C@@H]1NC(=O)[C@H](CCCCn2cc(CCC(=O)Nc3ccc(F)cc3)nn2)NC(=O)[C@@H](Cc2ccccc2)NC(=O)[C@H](CC(=O)O)NC(=O)CNC1=O | 3.65 | 10.6 | – | –
N=C(N)NCCC[C@@H]1NC(=O)[C@H](CCCCn2cc(CCC(=O)Nc3ccc(F)cc3)nn2)NC(=O)[C@@H](Cc2ccccc2)NC(=O)[C@H](CC(=O)O)NC(=O)CNC1=O | – | – | 300 | Active
